The test system of data set [1] is phospho-MEK in SK-MEL-28 cells. As to the kind of experiment: pMEK/tMEK ratio in SK-MEL-28 melanoma model. It counts as cell-based. The following applies: SK-MEL-28 (BRAF p.V600E); 100 nM. The protocol:
(§1) Compound (drug) treatment: Cells were plated in a 6-well plate at a density of 250,000-300,000 cells/well in 3 mL media and incubated 37° C. in a humidified, 5% CO2 incubator. […] These solutions were added to the cells (3 uL/well), mixed by swirling the plate, and incubated at 37° C. in a humidified, 5% CO2 incubator for 2 hours.
(§2) Cell lysis and protein estimation: Cells were washed with PBS, and scraped in 50 μL of lysis buffer containing protease and phosphatase inhibitors. Cell lysates were stored at −20° C. Cell lysates were thawed and spun at 12,000 rpm for one minute, 3 ul of the supernatant was added to 500 μL of Coomassie blue reagent following by 500 μL of water. […] Protein standards were used (0-20 mg/mL) to calculate protein concentrations of test samples.
(§3) All samples were heated at 95° C. for 5 minutes, cooled to room temperature and spun down. […] After the run, gel was removed and protein transfer was done using iBlot for 7 minutes, as per manufacturer's recommendations. After the transfer, nitrocellulose membrane was incubated on a shaker in 5 mL of blocking buffer at room temperature for 1 hr. The blot was then incubated overnight on a shaker in 5 ml of blocking buffer containing 0.2% Tween-20 and primary antibody, at room temperature. Anti-phospho-STAT3 antibody was used at a dilution of 1:500, the other 3 primary antibodies were used at a dilution of 1:1000.
(§4) Next day, the blot was washed 3 times for 10 min each with 10 mL of TBST followed by incubation on a shaker in 5 ml of blocking buffer containing 0.2% Tween-20 and 0.5 ul of the IRDye labeled secondary antibodies, diluted 1:10000, at room temperature for 1 hr. The blot was then washed 3 times for 10 min each with 10 mL of TBST and dried between sheets of paper towels. Imaging was done using LICOR's Odyssey imaging system, quantitation was done using their software, Image Studio version 3.1.
(§5) The nine models are described in Table 16.

The subject of data set [2] is phospho-MEK in A375 cells. As to the kind of experiment: pMEK/tMEK ratio in A375 melanoma model. Type of data set: cell-based. The following applies: A375 (BRAF p.V600E); 100 nM. The protocol:
as §1, §2, §3, §4, §5

Data set [3] concerns phospho-MEK in MM127 cells. As to the kind of experiment: pMEK/tMEK ratio in MM127 melanoma model. Type of data set: cell-based. The conditions noted are these: MM127 (NRAS p.G13R, BRAF p.G464E); 100 nM. The protocol:
as §1, §2, §3, §4, §5

Data set [4] has as its system phospho-MEK in Hs852.T cells. As to the kind of experiment: pMEK/tMEK ratio in Hs852.T melanoma model. Type of data set: cell-based. The conditions noted are these: Hs852.T (NRAS p.G12V); 100 nM. The procedure:
as §1, §2, §3, §4, §5

Data set [5] concerns phospho-MEK in MEL-JUSO cells. As to the kind of experiment: pMEK/tMEK ratio in MEL-JUSO melanoma model. Type of data set: cell-based. The conditions noted are these: MEL-JUSO (HRAS p.G13D, NRAS p.Q61L); 100 nM. The protocol:
as §1, §2, §3, §4, §5

For data set [6], the system named is phospho-ERK in MM415 cells. As to the kind of experiment: pERK/tERK ratio in MM415 melanoma model. It counts as cell-based. The following applies: MM415 (NRAS p.Q61L); 100 nM. The protocol: as §1, §2, §3, §4, §5
The subject of data set [7] is phospho-ERK in SK-MEL-30 cells. As to the kind of experiment: pERK/tERK ratio in SK-MEL-30 melanoma model. The following applies: SK-MEL-30 (NRAS p.Q61K); 100 nM. It counts as cell-based. The protocol:
as §1, §2, §3, §4, §5

The subject of data set [8] is phospho-ERK in SK-MEL-28 cells. As to the kind of experiment: pERK/tERK ratio in SK-MEL-28 melanoma model. Type of data set: cell-based. The conditions noted are these: SK-MEL-28 (BRAF p.V600E); 100 nM. The procedure:
as §1, §2, §3, §4, §5

The subject of data set [9] is phospho-MEK in MeWo cells. As to the kind of experiment: pMEK/tMEK ratio in MeWo melanoma model. The conditions noted are these: MeWo (NF1 LoF); 100 nM. It counts as cell-based. The procedure:
as §1, §2, §3, §4, §5

The test system of data set [10] is phospho-ERK in MM127 cells. As to the kind of experiment: pERK/tERK ratio in MM127 melanoma model. It counts as cell-based. The conditions noted are these: MM127 (NRAS p.G13R, BRAF p.G464E); 100 nM. The protocol: as §1, §2, §3, §4, §5
Data set [11] relates to phospho-MEK in SK-MEL-30 cells. As to the kind of experiment: pMEK/tMEK ratio in SK-MEL-30 melanoma model. It counts as cell-based. The procedure: as §1, §2, §3, §4, §5
Data set [12] relates to phospho-MEK in MM415 cells. As to the kind of experiment: pMEK/tMEK ratio in MM415 melanoma model. Type of data set: cell-based. The procedure:
as §1, §2, §3, §4, §5

The test system of data set [13] is phospho-MEK in SK-MEL-2 cells. As to the kind of experiment: pMEK/tMEK ratio in SK-MEL-2 melanoma model. It counts as cell-based. The conditions noted are these: SK-MEL-2 (NRAS p.Q61R); 100 nM. The protocol: as §1, §2, §3, §4, §5
Data set [14] can be described thus: Liver microsome stability (% remaining at 1 hour), CD-1 mouse. It counts as in vitro ADME. The conditions noted are these: 2 μM. The protocol:
(§6) Materials and Methods: Individual stock solutions of Test Articles (TA) were prepared at 30 mM in DMSO and were further diluted to 2 mM in DMSO. […] Prior to use in the assay, the 2 mM stock solutions were diluted 10-fold with acetonitrile. The acetonitrile diluted stocks were diluted 1:50 into warm (37° C.) 0.1 M potassium phosphate, pH 7.4, containing 2.0 mM NADPH (2× final assay concentration). Frozen liver microsomes were quick thawed in a 37° C. water bath and then placed on ice. […] The plate was incubated with gentle shaking at 37° C. Duplicate 30 μL aliquots were removed immediately after compound addition (To: time zero) and at 60 minutes. […] The quenched samples were gently mixed and were stored in a −20° C. freezer for at least 30 minutes. […]
(§7) Data Collection and Calculations: Analyst (AB Sciex) and Acquity (Waters) were used for data acquisition. Results were calculated using Microsoft Excel.
(§8) Peak area ratios for IS-normalized test article counts were used to calculate the percent remaining relative to the time zero (T0) value. As appropriate, results were plotted and further analyzed to calculate half-life (T1/2) and CLint values. […]
(§9) Results were plotted [ln (% remaining) vs. incubation time] and further analyzed to calculate half-life (T1/2) values: […]

A short description of data set [15]: Liver microsome stability (% remaining at 1 hour), beagle dog. It counts as in vitro ADME. The conditions noted are these: 2 μM. The protocol: as §6, §7, §8, §9
(In general: Liver microsomes are vesicles of endoplasmic reticulum, rich in cytochrome P450 enzymes.)

Data set [16] in a line: Liver microsome stability (% remaining at 1 hour), human. Type of data set: in vitro ADME. The conditions noted are these: 2 μM. The protocol: as §6, §7, §8, §9
The nature of data set [17]: Plasma stability, mouse plasma (Balb/c; Table 5 head CD-1 Mouse). Type of data set: in vitro ADME. The following applies: 2 μM.

The structures appear in SMILES notation. Like-named read-outs stand apart in the source and are kept apart here.

As to `CNS(=O)(=O)Nc1cccc(Cc2c(CN(C)C)c3ccc(OC(=O)N(C)C)cc3oc2=O)c1Cl` [Compound 274, 3-(2-chloro-3-((N-methylsulfamoyl)amino)benzyl)-4-((dimethylamino)methyl)-2-oxo-2H-chromen-7-yl dimethylcarbamate], the “pMEK/tMEK ratio normalized to DMSO” value in data set [1] was determined as 0.763; in [2], 0.585; in data set [3], 0.773; in data set [4], 0.672; in data set [5], 0.548; in data set [9], 0.904. In addition, the “pMEK/tMEK ratio normalized to DMSO” value in data set [11] (SK-MEL-30 (NRAS p.Q61K), 100 nM) was 0.609; in data set [12] (MM415 (NRAS p.Q61L), 100 nM), 0.58; in data set [13], 0.518. Further, the “pERK/tERK ratio normalized to DMSO” value came out at 0.423 in data set [6], 0.521 in data set [7], 0.745 in data set [8] and 0.533 in [10].
As to `Cn1cnc2c(F)c(Nc3ccc(Br)cc3Cl)c(C(=O)NOCCO)cc21` [Reference-1, Selumetinib], the “pMEK/tMEK ratio normalized to DMSO” value in data set [1] came to 0.984; in data set [2], 0.962; in data set [3], 2.341; in [4], 4.945; in data set [5], 2.988; in data set [9], 5.483. Besides, the “pMEK/tMEK ratio normalized to DMSO” value in data set [11] came to 2.177; in [12], 2.386; in [13] it was 2.055. The “pERK/tERK ratio normalized to DMSO” value in data set [6] is recorded as 0.114; in [7] it was 0.163; in [8], 0.152; in [10], 0.255. Further, the “CD-1 Mouse (% Reamining @1 hour)” value in data set [14] (liver microsomes, 1 hour) is reported as 13.9%. For the same compound, the “Beagle Dog (% Reamining @1 hour)” value in data set [15] (liver microsomes, 1 hour) turned out to be 97.5%. Besides, the “A-B Permeability Ranking” value with Caco-2 cells is reported as “High”. For the same compound, the “Human (% Reamining @1 hour)” value in data set [16] (liver microsomes, 1 hour) came to 75.8%. Besides, the “CD-1 Mouse (% Reamining @2 hour)” value in data set [17] (CD-1, mouse, 2 h, pH 7.4) was 104.8%.
`CNS(=O)(=O)Nc1nccc(Cc2c(C)c3ccc(Oc4ncccn4)cc3oc2=O)c1F` [Reference-2, reference compound]: the “CD-1 Mouse (% Reamining @1 hour)” value in data set [14] (CD-1, mouse, 1 h, pH 7.4) was 96.0%. In data set [15] (beagle, dog, 1 h, pH 7.4), the “Beagle Dog (% Reamining @1 hour)” value is reported as 111.6%. Also, in the data set on Caco-2 cells, the “A-B Permeability Ranking” value is “High”. Further, the “Human (% Reamining @1 hour)” value in [16] (human, 1 h, pH 7.4) is 107.1%. Moreover, in data set [17] (plasma, 2 hour), the “CD-1 Mouse (% Reamining @2 hour)” value came to 92.9%.

The values above are taken from US20250179057A1, “MEK IMMUNE ONCOLOGY INHIBITORS AND THERAPEUTIC USES THEREOF” (Immuneering Corporation, priority 2022, published 2025).
